We go through 16 molecules from paper PMC12679585, “Design, synthesis, and characterization of novel 5-ethylsulfonyl-indazole-3-carboxamides as dual VEGFR-2 and EGFR inhibitors: apoptotic antiproliferative and immunomodulatory evaluations” (RSC Advances, 2025).

The subject of series [1] is HCT-116 and MCF-7. Put plainly: Antiproliferative assay, average over the two cell lines. The series is classed as cell-based. As to conditions: Homo sapiens; average of HCT-116 and MCF-7; read-out: Average IC50 (GI50). From the text: (§1) The MTT assay[53,54] was employed to evaluate the antiproliferative efficacy of new compounds 8a–l against two human cancer cell lines: MCF-7 (breast) and HCT-116 (colorectal carcinoma). Erlotinib was employed as the benchmark. Check Appendix A for additional experimental information.
The MTT assay[53,54] was used to evaluate the antiproliferative properties of novel compounds 8a–l against two human cancer cell lines: MCF-7 (breast cancer) and HCT-116 (colorectal carcinoma). Erlotinib was utilized as the reference. […] The provided values represent the means of three experiments ± standard deviation (SD).

Series [2] has as its system HCT-116. Briefly: Antiproliferative assay (MTT). As to conditions: Homo sapiens, HCT-116 colorectal, mean of three experiments ± SD. The series is classed as cell-based.
Description: as §1
(§2) The MTT assay[53,54] was used to evaluate the antiproliferative properties of novel compounds 8a–l against two human cancer cell lines: MCF-7 (breast cancer) and HCT-116 (colorectal carcinoma). Erlotinib was utilized as the reference. […] The provided values represent the means of three experiments ± standard deviation (SD). […]
(§3) of Ham's F-12 medium/ Dulbecco's modified Eagle's medium (DMEM) (1:1) supplemented with 10% foetal calf serum (GIBCO, UK), 2 mM glutamine, insulin (10 μg/mL), hydrocortisone (500 ng/mL) and epidermal growth factor (20 ng/mL). Trypsin ethylenediamine tetra acetic acid (EDTA) was used to passage the cells after every 2-3 days. 96-well flat-bottomed cell culture plates were used to seed the cells at a density of 10^4 cells mL-1. The medium was aspirated from all the wells of culture plates after 24 h followed by the addition of synthesized compounds (in 200 μL medium to yield a final concentration of 0.1% (v/v) dimethyl sulfoxide) into individual wells of the plates.
(§4) Four wells were designated to a single compound. The plates were allowed to incubate at 37°C for 96 h. Afterwards, the medium was aspirated and 3-[4,5-dimethylthiazol-2-yl]-2,5-diphenyltetrazolium bromide (MTT) (0.4 mg/mL) in medium was added to each well and subsequently incubated for 3 h. The medium was aspirated and 150 μL dimethyl sulfoxide (DMSO) was added to each well. The plates were vortexed followed by the measurement of absorbance at 540 nm on a microplate reader. […]
(§5) All cell lines […]
(§6) were obtained from ATCC (American Type Cell Culture). […]
(§7) μM), benzamidine HCl (16 μg/mL), NaCl (10 mM),leupeptin (10 μg/mL) and pepstatin (10 μg/mL) at 0°C for 20 min at pH 7.4, followed by centrifugation for 20 min. To eliminate the nonspecifically bound material, a Ni-NTA super flow packed column was (1 picture or pasted object on this page, not shown here)

Series [3] relates to MCF-7. Put plainly: Antiproliferative assay (MTT). The series is classed as cell-based. As to conditions: Homo sapiens, MCF7, MCF-7 breast, mean of three experiments ± SD.
Description: as §1, §2, §3, §4, §5, §6, §7

A short description of series [4]: Cell viability assay (MTT) on normal mammary epithelial cells. The series is classed as cell-based. As to conditions: human, MCF-10A normal mammary gland epithelial cells, four days. On the procedure: This test assesses the safety of new compounds 8a–l on normal cell lines. The efficacy of 8a–l was tested on the normal human mammary gland epithelial cell line MCF-10A. MCF-10A cells were incubated with 50 µM of each tested compound for four days. Cell viability was assessed using the MTT assay.[11,48] Appendix A has extra experimental details.
This assay evaluates the impact of novel compounds 8a–l on normal cell lines to determine their safety, an essential consideration in drug discovery. The efficacy of the examined compounds was evaluated utilizing the normal human mammary gland epithelial cell line MCF-10A. […]
4.2. Biological evaluation
4.2.1 Cell Viability assay (MTT assay)
as §3, with “MTT assay was performed to investigate the effect of the synthesized compounds on mammary epithelial cells (MCF-10A). The cells were propagated in medium consisting of Ham's” for “of Ham's”
as §4

Series [5] concerns the target VEGFR-2 kinase. Set-up: method as in PMID 24456902. As to conditions: cited from earlier work.
For series [6], the system named is TNF-α. Briefly: TNF-α level by qRT-PCR in HCT-116 cells. As to conditions: HCT-116 cells, 24 hours, at IC50 against HCT-116 (8g 24 nM, 8h 23 nM), qRT-PCR.
Description: (§8) The reference molecule was dexamethasone, a drug that uniformly regulates the immune system.
TNF-α and IL6 a determination
(§9) determined using of q RT-PCR technique. By using q RTPCR (reference), the amount
(§10) treated HCT-116 cells was measured (at the IC50 concentrations). Total RNA was
(§11) accordance with the manufacturer's instructions (RNeasy mini kit, Qiagen, Germany).
(§12) Following RNA extraction, the Revert Aid First Strand cDNA Synthesis kit (Thermo
(§13) Scientific, USA) was used to create cDNA. The Rotor-Gene Q real-time PCR thermal
(§14) cycler was used to amplify target cDNA for apoptosis markers and GAPDH [as a
(§15) normalization (housekeeping) gene] using one step RT-PCR SYBR® Green kit Master
(§16) Mix (Bio-Rad Laboratories, USA). Two microliters of cDNA were combined with one
(§17) microliter of forward primer, one microliter of reverse primer, ten microliters of master
(§18) mixture, and twenty microliters of nuclease-free water to complete the reaction volume.
(§19) Every experiment was carried out three times.
(§20) Quantitative Real Time Reverse-Transcriptase PCR (qRT-PCR) primer sequences
TNF-α : R 5'- [sequence] -3'.
IL6 : R 5'- [sequence] -3
GAPDH : R 5’- [sequence]-3’
Series [7] relates to IL-6. Put plainly: IL-6 level by qRT-PCR in HCT-116 cells. As to conditions: HCT-116 cells, 24 hours, at IC50 against HCT-116 (8g 24 nM, 8h 23 nM), qRT-PCR.
Description: as §8
TNF-α and IL6 a determination
as §9, §10, §11, §12, §13, §14, §15, §16, §17, §18, §19, §20
TNF-α : R 5'- [sequence] -3'.
IL6 : R 5'- [sequence] -3
GAPDH : R 5’- [sequence]-3’
The test system of series [8] is Caspase-3. Briefly: Caspase-3 activation assay in HCT-116 cells. The series is classed as cell-based, human. On the procedure: Appendix A gives more details.
Additionally, activating caspases is essential for both initiating and terminating the apoptotic process.[64] Caspase-3 is an essential enzyme that cleaves several proteins within cells, leading to apoptotic cell death.[65] […]
be read immediately after the Stop Solution is added or within one hour if the microwell strips are stored at 2 - 8°C in the dark. Read the absorbance of each microwell on a spectrophotometer using 450 nm as the primary wavelength.
4.2.5. Caspase-3 activation assay
Allow all reagents to reach room temperature before use. Gently mix all liquid reagents prior to use. Determine the number of 8-well strips needed for the assay. Insert these in the frame(s) for current use. Add 100 μl of the Standard Diluent Buffer to the zero standard wells. Well(s) reserved for chromogen blank should be left empty. Add 100 μl of standards and controls or diluted samples to the appropriate microtiter wells. The sample dilution chosen should be optimized for each experimental system. Tap gently on side of plate to mix. Cover wells with plate cover and incubate for 2 hours at room temperature. Thoroughly aspirate or decant solution from wells and discard the liquid, Wash wells 4 times. Pipette 100 μl of Caspase-3 (Active) Detection Antibody solution into each well except the chromogen blank(s). Tap gently on the side of the plate to mix. Cover plate with plate cover and incubate for 1 hour at room temperature.
Thoroughly aspirate or decant solution from wells and discard the liquid, Wash wells 4 times. Add 100 μl Anti-Rabbit IgG HRP Working Solution to each well except the chromogen blank(s). Prepare the working dilution as described in Preparing IgG HRP.
Cover wells with the plate cover and incubate for 30 minutes at room temperature.
Thoroughly aspirate or decant solution from wells and discard the liquid. Wash wells 4 times. Add 100 μl of Stabilized Chromogen to each well. The liquid in the wells will […]
begin to turn blue. […] The
Tap side of plate gently to mix.
Use a curve fitting software to generate […]
for the dilution in step 3.
4.2.6. Caspase-8/9 activation assay
This lysate was diluted in […]

Series [9] has as its system Caspase-9. Briefly: Caspase-9 activation assay in HCT-116 cells.
For series [10], the system named is wild-type EGFR. Further details: method as in PMID 26275028. As to conditions: cited from earlier work.

`CCCCCCNC(=O)NNC(=O)c1n[nH]c2ccc(S(=O)(=O)CC)cc12` [Compound 8b, 2-(5-(Ethylsulfonyl)-1H-indazole-3-carbonyl)-N-hexylhydrazine-1-carboxamide]: the results for the IC50 in [1], in series [2] and in series [3] were 0.037 µM, 0.033 ± 0.003 µM and 0.04 ± 0.003 µM, respectively. Moreover, the viability at 4 days, 50 µM in [4] was determined as 92%.

`CCCCCNC(=O)NNC(=O)c1n[nH]c2ccc(S(=O)(=O)CC)cc12` [Compound 8a, 2-(5-(Ethylsulfonyl)-1H-indazole-3-carbonyl)-N-pentylhydrazine-1-carboxamide]: the IC50 came out at 0.048 µM in series [1], 0.042 ± 0.004 µM in series [2] and 0.054 ± 0.004 µM in [3]. This molecule displayed a viability at 4 days, 50 µM in series [4] of 90%.

As to `CN(c1ccc2cn(C)nc2c1)c1ccnc(Nc2ccc(OC(F)(F)F)cc2)n1` [Compound XIV], in series [5], the half-maximal inhibitory concentration (IC50) was 0.012 µM.

On to `C[C@@H]1C[C@H]2[C@@H]3CCC4=CC(=O)C=C[C@]4(C)[C@@]3(F)[C@@H](O)C[C@]2(C)[C@@]1(O)C(=O)CO` [Dexamethasone, reference compound], for which the “TNF-α (% inhibition)” value in [6] is 83%; in [6] (listed as dexamethasone), 82.7%. Also, the “IL-6 (% inhibition)” value in [7] came out at 93%; in [7] (listed as dexamethasone), 93.2%.

Regarding `Cc1ccc(Nc2nccc(N(C)c3ccc4c(C)n(C)nc4c3)n2)cc1S(N)(=O)=O` [pazopanib], the IC50 in series [5] is […].

As for `CN[C@@H]1C[C@H]2O[C@@](C)([C@@H]1OC)n1c3ccccc3c3c4c(c5c6ccccc6n2c5c31)C(=O)NC4` [Staurosporine, reference compound], the “Caspase-3 Conc.” value in series [8] worked out at 465 ± 4 pg/mL. In addition, the “Caspase-9 Conc.” value in series [9] is 20 ± 1 ng/mL.

Take `CCCCCCCCNC(=O)NNC(=O)c1n[nH]c2ccc(S(=O)(=O)CC)cc12` [Compound 8d, 2-(5-(Ethylsulfonyl)-1H-indazole-3-carbonyl)-N-octylhydrazine-1-carboxamide]: the concentration for half-maximal inhibition (IC50) in series [1] is 0.03 µM; in series [2] it was 0.028 ± 0.001 µM; in series [3], 0.031 ± 0.002 µM. This molecule yielded a viability at 4 days, 50 µM in [4] of 90%.

With `CCS(=O)(=O)c1ccc2[nH]nc(C(=O)NNC(=O)NC3CCCCC3)c2c1` [Compound 8e, 2-(5-(Ethylsulfonyl)-1H-indazole-3-carbonyl)-N-(cyclohexyl)hydrazine-1-carboxamide], the IC50 stood at 0.035 µM in series [1], 0.031 ± 0.003 µM in series [2] and 0.039 ± 0.003 µM in [3]. Further, in [4], the viability at 4 days, 50 µM stood at 91%.

On to `CCS(=O)(=O)c1ccc2[nH]nc(C(=O)NNC(=O)Nc3ccc(F)cc3)c2c1` [Compound 8i, 2-(5-(Ethylsulfonyl)-1H-indazole-3-carbonyl)-N-(4-fluorophenyl)hydrazine-1-carboxamide], for which the figures for the IC50 in [1], in series [2] and in series [3] were 0.04 µM, 0.036 ± 0.003 µM and 0.044 ± 0.004 µM, respectively. The same molecule came in with a viability at 4 days, 50 µM in series [4] of 91%.

`CCS(=O)(=O)c1ccc2[nH]nc(C(=O)NNC(=O)NCc3ccc(OC)cc3)c2c1` [Compound 8k, 2-(5-(Ethylsulfonyl)-1H-indazole-3-carbonyl)-N-(4-methoxybenzyl)hydrazine-1-carboxamide]: the figures for the half-maximal inhibitory concentration (IC50) in series [1], in series [2] and in series [3] were 0.031 µM, 0.03 ± 0.002 µM and 0.032 ± 0.002 µM, respectively. Moreover, the viability at 4 days, 50 µM in [4] was determined as 92%.

Turning to `CCS(=O)(=O)c1ccc2[nH]nc(C(=O)NNC(=O)NCc3ccccc3)c2c1` [Compound 8j, 2-(5-(Ethylsulfonyl)-1H-indazole-3-carbonyl)-N-(benzyl)hydrazine-1-carboxamide], the half-maximal inhibitory concentration (IC50) in [1] stood at 0.034 µM; in series [2], 0.031 ± 0.002 µM; in [3], 0.036 ± 0.002 µM. This molecule also had a viability at 4 days, 50 µM in series [4] of 90%.

For the molecule `CCS(=O)(=O)c1ccc2[nH]nc(C(=O)NNC(=O)NCCc3ccccc3)c2c1` [Compound 8l, 2-(5-(Ethylsulfonyl)-1H-indazole-3-carbonyl)-N-phenethylhydrazine-1-carboxamide], the figures for the IC50 in series [1], in series [2] and in series [3] were 0.042 µM, 0.037 ± 0.003 µM and 0.046 ± 0.004 µM, respectively. Also, the viability at 4 days, 50 µM in series [4] turned out to be 91%.

In the case of `C#Cc1cccc(Nc2ncnc3cc(OCCOC)c(OCCOC)cc23)c1` [Erlotinib, reference compound], the IC50 in series [1] amounted to 0.035 µM; in series [2] it was 0.03 ± 0.002 µM; in series [3] it was 0.04 ± 0.003 µM.

For `CCCCCCCNC(=O)NNC(=O)c1n[nH]c2ccc(S(=O)(=O)CC)cc12` [Compound 8c, 2-(5-(Ethylsulfonyl)-1H-indazole-3-carbonyl)-N-heptylhydrazine-1-carboxamide], the concentration for half-maximal inhibition (IC50) in [1] came to 0.032 µM; in series [2], 0.03 ± 0.002 µM; in series [3] it was 0.034 ± 0.002 µM. For the same molecule, the viability at 4 days, 50 µM in series [4] is 91%.

In the case of `CCS(=O)(=O)c1ccc2[nH]nc(C(=O)NNC(=O)NC3CCC(C)CC3)c2c1` (stereo not shown) [Compound 8f, 2-(5-(Ethylsulfonyl)-1H-indazole-3-carbonyl)-N-(4-methylcyclohexyl)hydrazine-1-carboxamide], the results for the IC50 in series [1], in series [2] and in [3] were 0.045 µM, 0.039 ± 0.003 µM and 0.05 ± 0.004 µM, respectively. Moreover, in series [4], the viability at 4 days, 50 µM came out at 92%.

Regarding `C=CC(=O)Nc1cccc(Oc2nc(Nc3n[nH]c4ccccc34)cc(N3CCN(C)CC3)n2)c1` [Compound XII], in series [10], the IC50 was 1.7 µM.
